Laboratory results from ChEMBL document CHEMBL5050841, “Inhibitors of pick1 and uses thereof” (2021).
Activity calls are given as the source filed them.

How the values were obtained:
[1] = Binding affinity towards PICK1 PDZ domain (unknown origin) measured by fluorescence polarization assay; parameters: species or system Homo sapiens
Mus musculus [2] = experiment: Anti-hypersensitive activity in C57BL/6J mouse model of spared nerve injury-induced acute neuropathic pain assessed as increase in ipsilateral paw mechanical threshold at 10 micromol/kg, sc; format: functional, organism-based; settings: dose 10.0 µmol/kg
Mus musculus [3] = species on record: Mus musculus; experiment: Disruption of PICK1-GluA2 interaction in lumbar spinal cord lysates of male C57BL/6 mouse assessed as reduction in GluA2 S880 phosphorylation levels at 20 uM, IT and measured by immunoblot analysis; format: subcellular
Mus musculus [4] = species on record: Mus musculus; experiment: Anti-hypersensitive activity in mouse model of spared nerve injury-induced acute neuropathic pain assessed as reduction in GluA2 surface levels in spinal cord at 20 uM, IT by immunoblot analysis; format: functional, organism-based
Mus musculus [5] = species on record: Mus musculus; experiment: Disruption of PICK1-GluA2 interaction in lumbar spinal cord lysates of male C57BL/6 mouse at 20 uM, IT and measured by co-immunoprecipitation assay; format: subcellular
[6] = (§1) Binding affinity towards PICK1 in rat hippocampal neurons incubated for 1 hr and measured by DID staining method; format: cell-based; settings: hippocampal neurone
Mus musculus [7] = species on record: Mus musculus; experiment: Anti-hypersensitive activity in mouse model of spared nerve injury-induced acute neuropathic pain assessed as reduction in GluA1 surface levels in spinal cord at 20 uM, IT by immunoblot analysis; format: functional, organism-based
[8] = Inhibition of macroscopic off-rate of bound PICK1 in Tac-YFP-Dat C24 expressing human HEK293 supported cell membrane sheets; format: cell membranes
Mus musculus [9] = species on record: Mus musculus; experiment: Anti-hypersensitive activity in mouse model of spared nerve injury-induced acute neuropathic pain assessed as increase in paw withdrawal threshold at 20 uM, IT by von Frey test; format: functional, organism-based
Mus musculus [10] = species on record: Mus musculus; experiment: Disruption of PICK1-GluA2 interaction in lumbar spinal cord lysates of male C57BL/6 mouse assessed as reduction in GluA2 surface levels at 20 uM, IT and measured by immunoblot analysis; format: subcellular
[11] = Stability of compound in PBS; format: physicochemical; settings: buffer
Mus musculus [12] = species on record: Mus musculus; experiment: Binding affinity towards PICK1 in lumbar spinal cord lysates of mouse at 20 uM, IT([…]) and measured by immunoblot analysis; format: subcellular
Mus musculus [13] = species on record: Mus musculus; experiment: Disruption of PICK1-GluA2 interaction in lumbar spinal cord lysates of male C57BL/6 mouse assessed as reduction in GluA1 surface levels at 20 uM, IT and measured by immunoblot analysis; format: subcellular
[14] = Inhibition of recombinant rat SNAP-543-labeled PICK1 binding to Tac-YFP-Dat C24 expressing human HEK293 supported cell membrane sheets and measured by fluorescence polarization competition binding assay; format: cell membranes
Mus musculus [15] = species on record: Mus musculus; experiment: Anti-hypersensitive activity in mouse model of spared nerve injury-induced chronic neuropathic pain assessed as increase in paw withdrawal threshold at 20 uM, IT after 14 days by von Frey test; format: functional, organism-based; settings: time 14.0 day
Rattus norvegicus [16] = experiment: Attenuation of cocaine reinstatement in 7 day cocaine treated rat assessed as effect on locomotor activity at 3 nmol/g, iv of TAMRA labeled compound treated for 45 mins prior to administration of cocaine injection; format: functional, organism-based
Hippocampal neurone = experiment: as §1; format: cell-based
[17] = Stability of compound in human plasma; format: ADME, cell-free
Rattus norvegicus [18] = experiment: Attenuation of cocaine reinstatement in 7 day cocaine treated rat assessed as reduction in sucrose seeking behaviour at 3 nmol/g, iv of TAMRA labeled compound treated for 45 mins prior to administration of cocaine injection; format: functional, organism-based
Mus musculus [19] = species on record: Mus musculus; experiment: Anti-hypersensitive activity in mouse model of spared nerve injury-induced chronic neuropathic pain assessed as increase in paw withdrawal threshold at 20 uM, IT after 28 days by von Frey test; format: functional, organism-based; settings: time 28.0 day
Mus musculus [20] = species on record: Mus musculus; experiment: Antiallodynic activity in C57BL6/N mouse model of CFA-induced inflammatory pain assessed as increase in paw withdrawal threshold at 20 uM, IT by von Frey test; format: functional, organism-based
Rattus norvegicus [21] = experiment: Attenuation of cocaine reinstatement in 7 day cocaine treated rat assessed as reduction in cocaine seeking behaviour at 0.3 to 3 nmol/g, iv of TAMRA labeled compound treated for 45 mins prior to administration of cocaine injection; format: functional, organism-based; settings: dose 0.3-3 nmol/g
Rattus norvegicus [22] = experiment: Attenuation of cocaine reinstatement in 7 day cocaine treated rat assessed as effect on inactive lever response at 0.3 to 3 nmol/g, iv of TAMRA labeled compound treated for 45 mins prior to administration of cocaine injection; format: functional, organism-based; settings: dose 0.3-3 nmol/g
Mus musculus [23] = experiment: Anti-hypersensitive activity in mouse model of spared nerve injury-induced chronic neuropathic pain assessed as increase in paw withdrawal threshold at 30 mg/kg, ip after 2 hrs by von Frey test; format: functional, organism-based

## CC[C@H](C)[C@H](NC(=O)[C@H](CCCCN)NC(=O)CNC(=O)[C@H](CC(C)C)NC(=O)[C@H](CC(C)C)NC(=O)[C@H](Cc1ccc(O)cc1)NC(=O)CNC(=O)[C@H](C)NC(=O)[C@H](CO)NC(=O)[C@H](CC(N)=O)NC(=O)[C@H](CC(C)C)NC(=O)[C@@H](NC(=O)[C@H](Cc1c[nH]c2ccccc12)NC(=O)CN)[C@@H](C)O)C(=O)N[C@@H](CC(N)=O)C(=O)N[C@@H](CC(C)C)C(=O)N[C@@H](CCCCN)C(=O)N[C@@H](C)C(=O)N[C@@H](CC(C)C)C(=O)N[C@@H](C)C(=O)N[C@@H](C)C(=O)N[C@@H](CC(C)C)C(=O)N[C@@H](C)C(=O)N[C@@H](CCCCN)C(=O)N[C@@H](CCCCN)C(=O)N[C@H](C(=O)N[C@@H](CC(C)C)C(=O)N(CCOCCOCCC(=O)N[C@@H](Cc1cnc[nH]1)C(=O)N[C@@H](Cc1c[nH]c2ccccc12)C(=O)N[C@@H](CC(C)C)C(=O)N[C@@H](CCCCN)C(=O)N[C@H](C(=O)O)C(C)C)CCOCCOCCC(=O)N[C@@H](Cc1cnc[nH]1)C(=O)N[C@@H](Cc1c[nH]c2ccccc12)C(=O)N[C@@H](CC(C)C)C(=O)N[C@@H](CCCCN)C(=O)N[C@H](C(=O)O)C(C)C)[C@@H](C)CC
[1]
  Ki: 7.8 nM
Mus musculus [2]
  Activity: Active

## CC(C)C[C@H](NC(=O)[C@H](Cc1c[nH]c2ccccc12)NC(=O)[C@H](Cc1cnc[nH]1)NC(=O)[C@H](CCCNC(=N)N)NC(=O)[C@H](CCCNC(=N)N)NC(=O)[C@H](CCCNC(=N)N)NC(=O)[C@H](CCC(N)=O)NC(=O)[C@H](CCCNC(=N)N)NC(=O)[C@H](CCCNC(=N)N)NC(=O)[C@H](CCCCN)NC(=O)[C@H](CCCCN)NC(=O)[C@H](CCCNC(=N)N)NC(=O)CNC(=O)[C@@H](N)Cc1ccc(O)cc1)C(=O)N[C@@H](CCCCN)C(=O)N[C@H](C(=O)O)C(C)C
Mus musculus [3]
  Activity: inactive
Mus musculus [4]
  Activity: inactive
Mus musculus [5]
  Activity: inactive
[6]
  IC50: Active
Mus musculus [7]
  Activity: inactive
[8]
  IC50: Not Active
Mus musculus [9]
  Activity: inactive
Mus musculus [10]
  Activity: inactive
[11]
  Stability: Unstable
Mus musculus [12]
  Activity: inactive
Mus musculus [13]
  Activity: inactive

## CC(C)C[C@H](NC(=O)[C@H](Cc1c[nH]c2ccccc12)NC(=O)[C@@H](N)Cc1cnc[nH]1)C(=O)N[C@@H](CCCCN)C(=O)N[C@H](C(=O)O)C(C)C
[8]
  IC50: Not Active

## CC(C)C[C@H](NC(=O)[C@H](Cc1c[nH]c2ccccc12)NC(=O)[C@H](Cc1cnc[nH]1)NC(=O)CCOCCOCCN(CCOCCOCCC(=O)N[C@@H](Cc1cnc[nH]1)C(=O)N[C@@H](Cc1c[nH]c2ccccc12)C(=O)N[C@@H](CC(C)C)C(=O)N[C@@H](CCCCN)C(=O)N[C@H](C(=O)O)C(C)C)C(=O)[C@H](CCCNC(=N)N)NC(=O)[C@H](CCCNC(=N)N)NC(=O)[C@H](CCCNC(=N)N)NC(=O)[C@H](CCCNC(=N)N)NC(=O)[C@H](CCCNC(=N)N)NC(=O)[C@H](CCCNC(=N)N)NC(=O)[C@H](CCCCN)NC(=O)[C@H](CCCCN)NC(=O)[C@H](CCCNC(=N)N)NC(=O)CNC(=O)[C@@H](N)Cc1ccc(O)cc1)C(=O)N[C@@H](CCCCN)C(=O)N[C@H](C(=O)O)C(C)C
[14]
  IC50: 7 nM
Mus musculus [3]
  Activity: Active
Mus musculus [4]
  Activity: Active
Mus musculus [15]
  Activity: Active
Rattus norvegicus [16]
  Activity: inactive
Mus musculus [5]
  Activity: Active
Hippocampal neurone
  Activity: Active
[17]
  Stability: Stable
Mus musculus [7]
  Activity: Active
[8]; read-out: IC50
  IC50: 1170 nM
Mus musculus [9]
  Activity: Active
Rattus norvegicus [18]
  Activity: inactive
Mus musculus [19]
  Activity: Active
Mus musculus [10]
  Activity: inactive
Mus musculus [2]
  Activity: Active
[11]
  Stability: Stable
Mus musculus [20]
  Activity: Active
Rattus norvegicus [21]
  Activity: Active
Mus musculus [12]
  Activity: Active
Mus musculus [13]
  Activity: inactive
Rattus norvegicus [22]
  Activity: inactive

## NCC1(CC(=O)O)CCCCC1
Mus musculus [23]
  Activity: Active
